These results are taken from patent US8067424B2, “Selective inhibitors for cyclin-dependent kinases” (Emory University, priority 2007, dated 2011).

The term remaining activity denotes the signal under treatment as a percentage of the control signal.

Like-named read-outs stand apart in the source and are kept apart here.

Format in all cases: biochemical
The target of one experiment is T1, ERK8 (Homo sapiens, UniProt Q8TD08).
T1 sequence (Q8TD08 1-544): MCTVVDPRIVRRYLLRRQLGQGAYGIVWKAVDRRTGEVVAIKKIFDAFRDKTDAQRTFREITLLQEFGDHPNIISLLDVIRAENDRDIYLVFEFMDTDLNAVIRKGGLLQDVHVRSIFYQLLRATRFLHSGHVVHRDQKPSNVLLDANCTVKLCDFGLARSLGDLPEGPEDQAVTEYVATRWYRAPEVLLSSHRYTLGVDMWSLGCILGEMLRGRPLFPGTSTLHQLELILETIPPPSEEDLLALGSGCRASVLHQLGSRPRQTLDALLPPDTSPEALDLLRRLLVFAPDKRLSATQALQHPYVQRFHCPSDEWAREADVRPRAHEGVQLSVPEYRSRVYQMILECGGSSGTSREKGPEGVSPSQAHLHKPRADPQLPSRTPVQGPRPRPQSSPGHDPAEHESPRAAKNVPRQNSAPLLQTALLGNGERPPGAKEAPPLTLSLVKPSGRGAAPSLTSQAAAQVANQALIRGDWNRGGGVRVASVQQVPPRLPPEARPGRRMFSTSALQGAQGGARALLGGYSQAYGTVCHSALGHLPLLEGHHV
As to the kind of experiment: Kinase screen: ERK8 assay. How it is done:
(§1) Generally, the same procedure was used for all assays. Since the total assay volume was 25.5 microliters, 0.5 microliters of inhibitors at 51× assay concentration were added to the plates before any other addition.
(§2) The basic procedure was to add 0.5 microliters inhibitor/control in DMSO to plate. Fifteen microliters of enzyme/substrate/buffer mix were added and incubated for 5 min. Ten microliters MgATP at the relevant concentration were added and incubated for 30 min. The assay was stopped by adding 5 microliters of 3% orthophosphoric acid. The assay was transferred to a p81 filter plate and read in a scintillation counter of 30 sec/well. Note that this assay procedure was not followed for MKK1, which instead involved a two-step assay, and PKC alpha, which required the addition of lipid vesicles.
ERK8 assay: 5-20 mU of ERK8 (diluted in 50 mM Tris (pH 7.5), 0.1 mM EGTA, 1 mg/ml BSA, 0.1%, b-Mercaptoethanol) was assayed against MBP in a final volume of 25.5 μl containing 50 mM Tris (pH 7.5), 0.1 mM EGTA, 0.1%, b-Mercaptoethanol, 0.33 mg/ml MBP, 10 mM magnesium acetate and 0.005 mM [33P-g-ATP] (500-1000 cpm/pmole) and incubated for 30 mins at room temperature. Assays were stopped by addition of 5 μl of 0.5M (3%) orthophosphoric acid. Assays were harvested onto P81 Unifilter plates using a wash buffer of 50 mM orthophosphoric acid.

Another experiment has as its target MNK1 (Homo sapiens, UniProt Q9BUB5). Nature of the experiment: Kinase screen: MNK1 assay. As to the method:
as §1, §2
MNK1 assay: 5-20 mU of MNK1 (diluted in 50 mM Tris (pH 7.5), 0.1 mM EGTA, 1 mg/ml BSA, 0.1%, b-Mercaptoethanol) was assayed against substrate peptide (eIF4E) in a final volume of 25.5 μl containing 50 mM Tris (pH 7.5), 0.1 mM EGTA, 0.1%, b-Mercaptoethanol, 0.5 mg/ml substrate peptide, 10 mM magnesium acetate and 0.05 mM [33P-g-ATP](500-1000 cpm/pmole) and incubated for 30 mins at room temperature. Assays were stopped by addition of 5 μl of 0.5M (3%) orthophosphoric acid. Assays were harvested onto P81 Unifilter plates using a wash buffer of 50 mM orthophosphoric acid.

Another experiment deals with T2, BRSK2 (Homo sapiens, UniProt Q8IWQ3).
T2 sequence (Q8IWQ3 1-736): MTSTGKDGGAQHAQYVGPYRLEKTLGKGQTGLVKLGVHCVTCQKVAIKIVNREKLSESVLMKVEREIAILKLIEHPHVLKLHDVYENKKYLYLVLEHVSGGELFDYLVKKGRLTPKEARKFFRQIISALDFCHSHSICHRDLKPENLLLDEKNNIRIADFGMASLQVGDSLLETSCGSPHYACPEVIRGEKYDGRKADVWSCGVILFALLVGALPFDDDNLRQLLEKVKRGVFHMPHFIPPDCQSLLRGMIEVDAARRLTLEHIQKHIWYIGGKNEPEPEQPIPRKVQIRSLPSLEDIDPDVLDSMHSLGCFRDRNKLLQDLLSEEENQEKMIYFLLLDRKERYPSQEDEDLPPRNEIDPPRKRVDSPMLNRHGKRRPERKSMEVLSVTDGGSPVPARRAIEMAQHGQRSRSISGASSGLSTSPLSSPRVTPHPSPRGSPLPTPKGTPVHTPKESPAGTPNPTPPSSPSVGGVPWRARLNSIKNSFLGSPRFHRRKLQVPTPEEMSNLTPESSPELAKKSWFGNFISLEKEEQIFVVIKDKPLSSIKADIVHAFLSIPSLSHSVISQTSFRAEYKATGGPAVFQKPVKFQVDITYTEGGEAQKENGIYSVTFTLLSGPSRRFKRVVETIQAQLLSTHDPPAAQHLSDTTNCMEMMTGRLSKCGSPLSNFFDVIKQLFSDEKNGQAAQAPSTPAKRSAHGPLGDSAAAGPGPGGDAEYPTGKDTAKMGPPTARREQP
As to the kind of experiment: Kinase screen: BRSK2 assay. As to the method:
as §1, §2
BRSK2 assay: BRSK2 (5-20 mU diluted in 50 mM Tris pH 7.5, 0.1 mM EGTA, 0.1% b-mercaptoethanol, 1 mg/ml BSA) was assayed against a substrate peptide ([…]) (SEQ ID NO: 33) in a final volume of 25.5 μl containing 50 mM Tris pH 7.5, 0.05% b-mercaptoethanol, 300 μM substrate peptide, 10 mM magnesium acetate and 0.05 mM [33P-g-ATP] (50-1000 cpm/pmole) and incubated for 30 min at room temperature. Assays were stopped by addition of 5 μl of 0.5 M (3%) orthophosphoric acid and then harvested onto P81 Unifilter plates with a wash buffer of 50 mM orthophosphoric acid.

The next experiment relates to CK2. Nature of the experiment: Kinase screen: CK2 assay. The note with it: for mean activity remaining (as a percentage of the original activity), CK 2: 10 micromolar compound. As to the method: as §2, with “Generally, the same procedure was used for all assays. Since the total assay volume was 25.5 microliters, 0.5 microliters of inhibitors at 51× assay concentration were added to the plates before any other addition. […] The basic” for “The basic”, “30 min. […] The assay” for “30 min. The assay was stopped by adding 5 microliters of 3% orthophosphoric acid. The assay”, “lipid vesicles. CK2 assay: […]” for “lipid vesicles.”

The mark [1] stands for this setting: 10 micromolar compound, read-out: mean activity remaining (as a percentage of the original activity), ERK8.
[2] abbreviates: 10 micromolar compound, read-out: mean activity remaining (as a percentage of the original activity), MNK1.
Setting [3] is: 10 micromolar compound, read-out: mean activity remaining (as a percentage of the original activity), BRSK 2.

MNK1, sequence (Q9BUB5 whole entry, species assumed): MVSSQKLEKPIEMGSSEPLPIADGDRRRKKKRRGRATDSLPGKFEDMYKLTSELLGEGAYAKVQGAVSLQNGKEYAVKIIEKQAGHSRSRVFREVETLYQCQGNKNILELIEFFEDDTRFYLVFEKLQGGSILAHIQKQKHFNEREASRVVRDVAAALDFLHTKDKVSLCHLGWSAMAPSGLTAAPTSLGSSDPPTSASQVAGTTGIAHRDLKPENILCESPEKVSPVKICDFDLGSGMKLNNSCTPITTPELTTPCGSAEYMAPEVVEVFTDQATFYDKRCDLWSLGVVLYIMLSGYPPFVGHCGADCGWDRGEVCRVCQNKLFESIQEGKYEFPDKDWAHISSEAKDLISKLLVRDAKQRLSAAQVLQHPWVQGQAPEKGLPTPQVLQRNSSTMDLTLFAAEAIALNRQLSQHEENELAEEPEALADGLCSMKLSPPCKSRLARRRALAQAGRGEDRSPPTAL

Take `CC[C@H](CO)Nc1cc(NCc2ccccc2)n2ncc(C(C)C)c2n1` [ICEC0067]: the remaining activity at 10 µM was determined as 23% at ERK8 (setting [1]), 86% at MNK1 (setting [2]) and 76% on BRSK2 (setting [3]). Moreover, the “mean activity remaining (as a percentage of the original activity), CK 2” value in the experiment on CK2 is on record as 87%.
Consider `C=C[C@H](CO)Nc1cc(NCc2ccccc2)n2ncc(C(C)C)c2n1` [ICEC0065], for which the remaining activity at 10 µM at ERK8 (setting [1]) is 28%; at MNK1 (setting [2]) it was 90%; at BRSK2 (setting [3]) it was 76%. In the experiment with CK2, the “mean activity remaining (as a percentage of the original activity), CK 2” value came to 94%.
In the case of `CC(C)c1cnn2c(NCc3ccccc3)cc(N[C@@H](CO)[C@H](O)CO)nc12` [ICEC0318, (3S)-3-(7-(Benzylamino)-3-isopropylpyrazolo[1,5-a]pyrimidin-5-ylamino)butane-1,2,4-triol], the remaining activity at 10 µM came out at 26% on ERK8 (setting [1]), 98% on MNK1 (setting [2]) and 108% at BRSK2 (setting [3]). Also, the “mean activity remaining (as a percentage of the original activity), CK 2” value in the experiment with CK2 amounted to 89%.
Consider `CC(C)c1cnn2c(NCc3ccccc3F)cc(NCCCCCN)nc12` [ICEC-0232], for which, on ERK8 (10 micromolar compound), the “mean activity remaining (as a percentage of the original activity), ERK8” value worked out at 23%. For the same compound, the “mean activity remaining (as a percentage of the original activity), MNK1” value on MNK1 (10 micromolar compound) is given as 97%. Further, the “mean activity remaining (as a percentage of the original activity), BRSK 2” value on BRSK2 (10 micromolar compound) amounted to 81%. In the experiment on CK2, the “mean activity remaining (as a percentage of the original activity), CK 2” value amounted to 92%.
With `CC(C)c1cnn2c(NCc3ccccc3)cc(NCCCCCCCN)nc12` [BS-181], the remaining activity at 10 µM was found to be 32% at ERK8 (ERK8, 10 μM, read-out: Mean Remaining Enzyme Activity (%)); 105% on MNK1 (MNK1, 10 μM, read-out: Mean Remaining Enzyme Activity (%)); 98% at BRSK2 (BRSK2, 10 μM, read-out: Mean Remaining Enzyme Activity (%)). The “Mean Remaining Enzyme Activity (%)” value in the experiment with CK2 (CK2, 10 μM) was 108%.
